Experiments:
[1] = target: D(1B) dopamine receptor (Homo sapiens, UniProt P21918); test: Displacement of [3H]SCH23390 from human dopamine D5 receptor expressed in HEK cells; assay type: cell-based, HEK293
[2] = target: D(3) dopamine receptor (Homo sapiens, UniProt P35462); test: Displacement of [3H]spiperone from human dopamine D3 receptor expressed in CHO-K1 cells; assay type: cell-based
[3] = target: D(2) dopamine receptor (Homo sapiens, UniProt P14416); test: Displacement of [3H]spiperone from human dopamine D2short receptor expressed in CHO-K1 cells; assay type: cell-based
Chain of D(2) dopamine receptor (P14416 whole entry): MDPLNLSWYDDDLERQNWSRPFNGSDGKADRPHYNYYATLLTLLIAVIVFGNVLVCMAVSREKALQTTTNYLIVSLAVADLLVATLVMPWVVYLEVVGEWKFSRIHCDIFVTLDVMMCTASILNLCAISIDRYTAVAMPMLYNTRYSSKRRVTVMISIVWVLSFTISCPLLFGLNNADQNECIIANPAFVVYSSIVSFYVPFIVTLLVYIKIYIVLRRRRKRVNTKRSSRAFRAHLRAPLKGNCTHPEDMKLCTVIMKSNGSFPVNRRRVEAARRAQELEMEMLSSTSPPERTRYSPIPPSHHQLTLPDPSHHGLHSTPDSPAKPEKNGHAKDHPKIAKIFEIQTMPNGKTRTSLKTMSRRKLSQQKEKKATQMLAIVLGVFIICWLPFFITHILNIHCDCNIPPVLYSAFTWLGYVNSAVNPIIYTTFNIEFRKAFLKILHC

[4] = target: D(1A) dopamine receptor (Homo sapiens, UniProt P21728); test: Displacement of [3H]SCH23390 from human dopamine D1 receptor expressed in HEK cells; assay type: cell-based, HEK293
Chain of D(1A) dopamine receptor (P21728 whole entry): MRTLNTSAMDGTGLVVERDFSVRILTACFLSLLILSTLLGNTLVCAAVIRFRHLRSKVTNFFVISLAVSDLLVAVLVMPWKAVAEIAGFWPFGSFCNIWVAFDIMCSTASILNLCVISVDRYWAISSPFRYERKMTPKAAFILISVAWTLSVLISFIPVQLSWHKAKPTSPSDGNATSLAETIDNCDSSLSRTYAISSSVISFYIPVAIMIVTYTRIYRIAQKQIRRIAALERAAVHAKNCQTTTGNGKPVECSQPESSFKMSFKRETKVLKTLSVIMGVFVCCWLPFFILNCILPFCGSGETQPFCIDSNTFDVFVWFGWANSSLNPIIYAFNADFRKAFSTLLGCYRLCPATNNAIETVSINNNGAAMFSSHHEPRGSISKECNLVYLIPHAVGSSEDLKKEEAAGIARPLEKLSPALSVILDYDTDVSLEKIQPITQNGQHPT

[5] = target: Histamine H4 receptor (Homo sapiens, UniProt Q9H3N8); test: Displacement of [3H]histamine from human histamine H4 receptor expressed in Sf9 cells
[6] = target: Histamine H1 receptor (Homo sapiens, UniProt P35367); test: Displacement of [3H]pyrilamine from human histamine H1 receptor expressed in CHO-K1 cells; assay type: cell-based
Chain of Histamine H1 receptor (P35367 whole entry): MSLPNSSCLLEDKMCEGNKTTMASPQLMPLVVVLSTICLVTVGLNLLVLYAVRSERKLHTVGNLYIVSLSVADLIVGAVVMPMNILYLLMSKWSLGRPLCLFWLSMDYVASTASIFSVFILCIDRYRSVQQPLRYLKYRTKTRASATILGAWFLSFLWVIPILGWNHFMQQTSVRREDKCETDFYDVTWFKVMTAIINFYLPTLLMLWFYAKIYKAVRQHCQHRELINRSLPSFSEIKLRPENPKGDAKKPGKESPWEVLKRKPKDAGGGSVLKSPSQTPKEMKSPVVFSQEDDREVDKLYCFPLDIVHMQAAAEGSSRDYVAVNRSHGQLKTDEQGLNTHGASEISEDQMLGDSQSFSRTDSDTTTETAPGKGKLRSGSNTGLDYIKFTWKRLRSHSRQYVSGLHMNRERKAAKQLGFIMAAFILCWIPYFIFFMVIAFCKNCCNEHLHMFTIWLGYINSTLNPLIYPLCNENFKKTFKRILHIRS

[7] = target: Histamine H3 receptor (Homo sapiens, UniProt Q9Y5N1); test: Displacement of [3H]Nalpha-methylhistamine from human recombinant histamine H3 receptor expressed in HEK-293 cells; assay type: cell-based, HEK293
Chain of Histamine H3 receptor (Q9Y5N1 whole entry): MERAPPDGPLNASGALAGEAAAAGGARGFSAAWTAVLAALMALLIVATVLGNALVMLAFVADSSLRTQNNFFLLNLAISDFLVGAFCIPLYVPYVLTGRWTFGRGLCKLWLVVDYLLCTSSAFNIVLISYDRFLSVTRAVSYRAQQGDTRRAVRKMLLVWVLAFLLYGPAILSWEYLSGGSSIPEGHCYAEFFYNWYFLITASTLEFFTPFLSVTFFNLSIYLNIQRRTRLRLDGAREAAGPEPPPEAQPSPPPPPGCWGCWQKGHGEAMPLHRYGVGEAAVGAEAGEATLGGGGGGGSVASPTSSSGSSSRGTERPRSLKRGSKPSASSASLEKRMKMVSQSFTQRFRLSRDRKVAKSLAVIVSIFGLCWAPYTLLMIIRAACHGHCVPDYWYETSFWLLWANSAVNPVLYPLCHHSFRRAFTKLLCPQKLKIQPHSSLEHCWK

Chain of D(3) dopamine receptor (P35462 whole entry): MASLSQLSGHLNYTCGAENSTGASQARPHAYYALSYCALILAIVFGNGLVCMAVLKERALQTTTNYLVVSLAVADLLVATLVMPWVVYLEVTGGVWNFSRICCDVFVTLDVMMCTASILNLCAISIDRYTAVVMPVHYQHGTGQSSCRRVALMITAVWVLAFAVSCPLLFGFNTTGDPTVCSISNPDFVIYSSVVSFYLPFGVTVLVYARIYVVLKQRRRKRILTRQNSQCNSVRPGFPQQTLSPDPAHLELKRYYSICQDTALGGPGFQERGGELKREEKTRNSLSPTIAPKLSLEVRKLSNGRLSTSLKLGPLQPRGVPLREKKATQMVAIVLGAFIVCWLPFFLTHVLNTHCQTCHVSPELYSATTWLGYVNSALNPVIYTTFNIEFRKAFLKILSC
Chain of D(1B) dopamine receptor (P21918 whole entry): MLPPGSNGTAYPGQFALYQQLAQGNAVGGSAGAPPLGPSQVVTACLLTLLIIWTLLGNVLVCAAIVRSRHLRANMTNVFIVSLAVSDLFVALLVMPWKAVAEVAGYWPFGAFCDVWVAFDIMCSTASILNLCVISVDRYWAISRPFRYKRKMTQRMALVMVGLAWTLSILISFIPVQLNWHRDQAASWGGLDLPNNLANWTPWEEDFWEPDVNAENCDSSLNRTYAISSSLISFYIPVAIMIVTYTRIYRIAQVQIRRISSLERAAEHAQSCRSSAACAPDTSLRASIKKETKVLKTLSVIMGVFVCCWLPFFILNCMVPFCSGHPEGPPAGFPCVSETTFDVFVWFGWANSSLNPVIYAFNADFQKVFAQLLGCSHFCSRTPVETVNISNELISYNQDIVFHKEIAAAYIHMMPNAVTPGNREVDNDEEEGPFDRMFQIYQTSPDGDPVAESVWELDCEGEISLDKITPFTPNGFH

Ki [1]: 5210 nM | Ki [2]: 1490 nM | Ki [3]: 1970 nM | Ki [4]: 12500 nM | Ki [5]: 7480 nM | Ki [6]: 1660 nM | Ki [7]: 6.51 nM
SMILES: CC1=CC(C)=[N+]2C1=C(c1ccc(OCCCN3CCCCC3)cc1)c1c(C)cc(C)n1[B-]2(F)F [BODILISANT]

Source: ChEMBL document CHEMBL2321700, “Bodilisant-a novel fluorescent, highly affine histamine h3 receptor ligand” (ACS Med Chem Lett, 2013)
